Results taken from publication PMC11404848, “Stenotrophomonas maltophilia uses a c-di-GMP module to sense the mammalian body temperature during infection” (PLOS Pathogens, 2024).

Target: T1, BtsD^Δ(SP-GGDEF)
T1 construct: N-terminal region; signal peptide (1-42) and GGDEF domain (836-1008) deleted; borders derived from printed deletions; expressed in E. coli BL21(DE3), His6 tag kept or GST tag cut
Assay: MicroScale Thermophoresis
Format: binding, Stenotrophomonas maltophilia
Conditions: PBS pH 6.5; protein labelled with Red NHS dye
Description: MicroScale Thermophoresis on BtsD^Δ(SP-GGDEF) | BtsD^Δ(SP-GGDEF) directly bound with c-di-GMP and Sensor^BtsK

## Nc1nc2c(ncn2[C@@H]2O[C@@H]3COP(=O)(O)O[C@H]4[C@@H](O)[C@H](n5cnc6c(=O)[nH]c(N)nc65)O[C@@H]4COP(=O)(O)O[C@H]3[C@H]2O)c(=O)[nH]1 [c-di-GMP]
  Kd: 8.72 ± 4.12 µM
